Experiments:
[1] = biological target: S1P1 (Homo sapiens, UniProt P21453); test: Phosphorylated-ERK1/2 In Cell Western, wild type S1P1 in CHOK1; format: cell-based
Protocol: (§1) CHOK1 cells were transfected using Fugene (Roche). Stably expressing mixed pools were selected with 2 mg/ml G418. Expression of functional S1P1/EDG1 receptor was confirmed by cell surface FACS with a S1P1 antibody (R&D Systems, clone 218713). Stable pools were seeded at 40,000 cells/well in a clear bottom 96-well tray, and incubated at 37° C. in 5% CO2 for 18 hrs. Cells were serum-starved in FreeStyle 293 medium (Invitrogen) for 4-6 h, then incubated for 5 min with a dose response of compound, in duplicate. Cells were fixed with 4% paraformaldehyde for 20 min, permeabilized with 0.1% Triton X-100 in PBS (4×5 min washes) and blocked for 1 h in Odyssey Blocking Buffer (LI-COR). All incubations were at room temperature. Cells were incubated for 18 h at 4° C. in Rabbit anti-Phospho-ERK1/2 (Cell Signaling #4377) and Mouse anti-ERK1/2 (Cell Signaling #9107) both diluted 1:800 in Odyssey Blocking Buffer. Plates were washed with 0.1% Tween-20 in PBS and then incubated with Odyssey Blocking Buffer containing IRDye 680-labeled goat anti-rabbit antibody (#926-32221; diluted 1/500) and IRDye 800CW-labeled goat anti-mouse antibody (#926-32210; diluted 1/1000). Plates were washed with 0.1% Tween-20 in PBS, all liquid was removed from the wells and the plates were scanned using a LICOR Odyssey scanner. […] Data was analyzed by non-linear regression using GraphPad Prism to determine the EC50 of binding.

[2] = biological target: S1P1 W269L (Homo sapiens, UniProt P21453, W269L); test: S1P1 mutagenesis analysis, W269L mutant; format: cell-based
Protocol: as §1, with “binding. […]” for “binding.”

[3] = biological target: S1P1 N101A (Homo sapiens, UniProt P21453, N101A); test: Phosphorylated-ERK1/2 In Cell Western, S1P1 mutant N101A; format: cell-based
Protocol: (§2) Quick-change mutagenesis with PfuTurbo DNA polymerase (Stratagene) was conducted using S1P1/pcDNA3.1 (Missouri S&T cDNA Resource Centre) as the template. Primers were as follows: […]
(§3) PCR conditions were 15 cycles with the following parameters: 95° C. 30 sec, 58° C. 30 sec, 68° C. for 60 sec. All constructs were sequence verified.
as §1, with “Buffer.” for “Buffer. Plates were washed with 0.1% Tween-20 in PBS and then incubated with Odyssey Blocking Buffer containing IRDye 680-labeled goat anti-rabbit antibody (#926-32221; diluted 1/500) and IRDye 800CW-labeled goat anti-mouse antibody (#926-32210; diluted 1/1000). Plates were washed with 0.1% Tween-20 in PBS, all liquid was removed from the wells and the plates were scanned using a LICOR Odyssey scanner.”

[4] = biological target: S1P1 R120A/E121A (Homo sapiens, UniProt P21453, E121A/R120A); test: Phosphorylated-ERK1/2 In Cell Western, S1P1 mutant R120A/E121A; format: cell-based
Protocol: as §2, §3
as §1, with “Buffer.” for “Buffer. Plates were washed with 0.1% Tween-20 in PBS and then incubated with Odyssey Blocking Buffer containing IRDye 680-labeled goat anti-rabbit antibody (#926-32221; diluted 1/500) and IRDye 800CW-labeled goat anti-mouse antibody (#926-32210; diluted 1/1000). Plates were washed with 0.1% Tween-20 in PBS, all liquid was removed from the wells and the plates were scanned using a LICOR Odyssey scanner.”

[5] = tested on: CD4 or CD8 positive T cells; settings: racemic compound 253; data stated as reported by Gonzalez-Cabrera et al. 2008; cited from earlier work
[6] = biological target: S1P1/EDG1 (Homo sapiens, UniProt P21453); test: S1P1 CRE-bla CHOK1 reporter assay, inhibition of Forskolin induced cAMP; format: cell-based; settings: CRE-bla CHOK1 cells, 2 μM Forskolin; read-out: S1P1 ACTIVITY (agonist activity)
Protocol: Generation of S1P1-Mediated Inhibition of cAMP Reporter Assay
S1P1/pcDNA3.1 was transfected into the CRE-bla CHO K1 (Invitrogen) cell line, and stable single cell clones were selected using standard techniques.
S1P1 CRE-Bla CHOK1 Reporter Assay—Characterization of S1P1 Agonists
Cells were seeded into 384-well black wall/clear bottom plates at 10^4 cells/well/19.5 μl assay media (DMEM-phenol free, 0.5% charcoal/dextran stripped serum, 2 mM glutamine, 0.1 mM NEAA, 1 mM Na-Pyruvate, 25 mM Hepes) and incubated for 18 hrs at 37° C. in 5% CO2. Dose response curves (10-point) were generated in 10 mM Hepes, 0.1% Pluronic F127, in the presence of Forskolin. Cells were treated with 0.5 μl compound in the presence of 2 μM Forskolin for 4 hrs at 37° C. The FRET-based β-lactamase fluorescent substrate (LiveBLAzer™-FRET B/G Loading Kit CC4-AM; Invitrogen) was prepared according to manufacturer's directions, and incubated with cells for 2 hrs at room temperature. […] Data was analyzed by non-linear regression to determine the EC50 for inhibition of Forskolin induced cAMP.

[7] = tested on: influenza A virus (A/WSN/33); test: Influenza A H1N1 model in mice; settings: mouse, in vivo

Sequence of S1P1/EDG1 (P21453 whole entry): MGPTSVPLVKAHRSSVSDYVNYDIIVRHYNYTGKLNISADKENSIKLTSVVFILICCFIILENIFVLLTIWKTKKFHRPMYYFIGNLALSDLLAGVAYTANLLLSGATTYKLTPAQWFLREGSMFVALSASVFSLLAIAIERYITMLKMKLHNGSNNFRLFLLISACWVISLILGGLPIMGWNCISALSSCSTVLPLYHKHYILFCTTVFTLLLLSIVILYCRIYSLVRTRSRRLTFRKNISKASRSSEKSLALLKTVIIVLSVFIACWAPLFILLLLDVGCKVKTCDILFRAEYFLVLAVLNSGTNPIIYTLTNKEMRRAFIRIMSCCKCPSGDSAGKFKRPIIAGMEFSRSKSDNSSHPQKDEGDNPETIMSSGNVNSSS
Sequence of S1P1 R120A/E121A (P21453 whole entry R120A/E121A): as the sequence (P21453 whole entry) above, with R120A, E121A counted along it
Sequence of S1P1 (P21453 whole entry): as the sequence (P21453 whole entry) above
Sequence of S1P1 N101A (P21453 whole entry N101A): as the sequence (P21453 whole entry) above, with N101A counted along it
Sequence of S1P1 W269L (P21453 whole entry W269L): as the sequence (P21453 whole entry) above, with W269L counted along it

SMILES	EC50 [6]	other results
CC(C)Oc1ccc(-c2nc(-c3cccc4c3CC[C@@H]4N)no2)cc1C#N [Compound 50, (S)-5-(3-(1-amino-2,3-dihydro-1H-inden-4-yl)-1,2,4-oxadiazol-5-yl)-2-isopropoxy-benzonitrile]		S1P1 agonism, phosphorylation of ERK1/2 [1]: induce phosphorylation of ERK1/2; effect of S1P1 mutation on binding [2]: abolishes binding; effect of S1P1 mutation on binding [3]: reduces the binding; effect of S1P1 mutation on binding [4]: no influence on the binding
CCOc1ccc(-c2nc(-c3cccc4c3CCC4NCCO)no2)cc1OCC (racemic) [Compound 253, (+/−)-2-((4-(5-(3,4,DIETHOXYPHENYL)-1,2,4-OXADIAZOL-3-YL)-2,3-DIHYDRO-1H-INDEN-1-YL) AMINO)ETHANOL]		Mouse Lymphopenia (AUEC) [5]: 116
CC(C)Oc1ccc(-c2nc(-c3cccc4c3CCC4NC[C@H](O)CO)no2)cc1C#N (stereo partly shown) [Compound 41]	50 to 500 pM	
CC(C)Oc1ccc(-c2nc(-c3cccc4c3CCC4NC[C@H](C)O)no2)cc1C#N (stereo partly shown) [Compound 43]	50 to 500 pM	
CC(C)Oc1ccc(-c2nc(-c3cccc4c3CC[C@H]4NS(=O)(=O)CCN3CCC3)no2)cc1C#N [Compound 168]	50 to 500 pM	
CCOc1ccc(-c2nc(-c3cccc4c3CC[C@@H]4O)no2)cc1[N+](=O)[O-] [Compound 12]	500 to 5000 pM	
CC(C)Oc1ccc(-c2nc(-c3cccc4c3CC[C@@H]4NC(=O)N(C)C)no2)cc1C#N [Compound 120]	50 to 500 pM	
CC(C)Oc1ccc(-c2nc(-c3cccc4c3CC[C@H]4NS(=O)(=O)CCN(C)C)no2)cc1C#N [Compound 77]	50 to 500 pM	
CC(C)Oc1ccc(-c2nc(-c3cccc4c3CC[C@H]4NC(C)C(=O)N(C)C)no2)cc1C#N (stereo partly shown) [Compound 58]	500 to 5000 pM	
CC(C)Oc1ccc(-c2nc(-c3cccc4c3CCC4NC[C@@H](C)O)no2)cc1C#N (stereo partly shown) [Compound 42]	500 to 5000 pM	
CC(C)Oc1ccc(-c2nc(-c3cccc4c3CC[C@H]4NS(C)(=O)=O)no2)cc1C#N [Compound 70]	50 to 500 pM	
CNCCS(=O)(=O)N[C@@H]1CCc2c(-c3noc(-c4ccc(OC(C)C)c(C#N)c4)n3)cccc21 [Compound 74]	50 to 500 pM	
CC(C)Oc1ccc(-c2nc(-c3cccc4c3CC[C@@H]4NS(=O)(=O)CCN3CC(O)C3)no2)cc1C#N [Compound 181]	50 to 500 pM	
CC(C)Oc1ccc(-c2nc(-c3cccc4c3CC[C@@H]4N(C)CC(=O)N(C)C)no2)cc1C#N [Compound 115]	500 to 5000 pM	
CC(C)Oc1ccc(-c2nc(-c3cccc4c3CC[C@H]4NCC(=O)N3CCOCC3)no2)cc1C#N [Compound 59]	50 to 500 pM	
CC(C)Oc1ccc(-c2nc(-c3cccc4c3CC[C@@H]4NS(=O)(=O)CCN3CCC(O)CC3)no2)cc1C#N [Compound 178]	500 to 5000 pM	
CC(C)Oc1ccc(-c2nc(-c3cccc4c3CCC4NCCC(=O)O)no2)cc1C#N (racemic) [Compound 38]		S1P1 agonism, phosphorylation of ERK1/2 [1]: induce phosphorylation of ERK1/2; effect of S1P1 mutation on binding [2]: abolishes binding; effect of S1P1 mutation on binding [3]: no effect on binding; effect of S1P1 mutation on binding [4]: diminishes binding
CC(C)Oc1ccc(-c2nc(-c3cccc4c3CC[C@H]4N(C)CCO)no2)cc1C#N [Compound 111]	500 to 5000 pM	
CC(C)Oc1ccc(-c2nc(-c3cccc4c3CC[C@@H]4NS(=O)(=O)CCN3CCNCC3)no2)cc1C#N [Compound 179]	500 to 5000 pM	
CC(C)Oc1ccc(-c2nc(-c3cccc4c3CC[C@@H]4N(CCO)S(=O)(=O)c3ccccc3)no2)cc1C#N [Compound 117]	> 5000 pM	
COCCN[C@@H]1CCc2c(-c3noc(-c4ccc(OC(C)C)c(C#N)c4)n3)cccc21 [Compound 88]	500 to 5000 pM	
CC(C)Oc1ccc(-c2nc(-c3cccc4c3CC[C@H]4NCCO)no2)cc1C#N [Compound 85, (R)-5-(3-(1-(2-hydroxyethylamino)-2,3-dihydro-1H-inden-4-yl)-1,2,4-oxadiazol-5-yl)-2-isopropoxybenzonitrile]		suppression of cellular infiltrate into the lungs [7]: 40%
CCOc1ccc(-c2nc(-c3cccc4c3CC[C@H]4O)no2)cc1[N+](=O)[O-] [Compound 11]	500 to 5000 pM	
CC(C)Oc1ccc(-c2nc(-c3cccc4c3CC[C@H]4NC(=O)c3ccc(Br)cc3)no2)cc1C#N [Compound 122]	> 5000 pM	
CC(C)Oc1ccc(-c2nc(-c3cccc4c3CC[C@@H]4NS(=O)(=O)CCNCCO)no2)cc1C#N [Compound 180]	50 to 500 pM	
